As usually defined, the IC50 is the concentration at which inhibition is half-maximal.

The target of this experiment is T1, human CTPS1 (Homo sapiens, UniProt P17812).
T1 construct: purchased Proteros biostructures GmbH
T1 sequence (P17812 1-591): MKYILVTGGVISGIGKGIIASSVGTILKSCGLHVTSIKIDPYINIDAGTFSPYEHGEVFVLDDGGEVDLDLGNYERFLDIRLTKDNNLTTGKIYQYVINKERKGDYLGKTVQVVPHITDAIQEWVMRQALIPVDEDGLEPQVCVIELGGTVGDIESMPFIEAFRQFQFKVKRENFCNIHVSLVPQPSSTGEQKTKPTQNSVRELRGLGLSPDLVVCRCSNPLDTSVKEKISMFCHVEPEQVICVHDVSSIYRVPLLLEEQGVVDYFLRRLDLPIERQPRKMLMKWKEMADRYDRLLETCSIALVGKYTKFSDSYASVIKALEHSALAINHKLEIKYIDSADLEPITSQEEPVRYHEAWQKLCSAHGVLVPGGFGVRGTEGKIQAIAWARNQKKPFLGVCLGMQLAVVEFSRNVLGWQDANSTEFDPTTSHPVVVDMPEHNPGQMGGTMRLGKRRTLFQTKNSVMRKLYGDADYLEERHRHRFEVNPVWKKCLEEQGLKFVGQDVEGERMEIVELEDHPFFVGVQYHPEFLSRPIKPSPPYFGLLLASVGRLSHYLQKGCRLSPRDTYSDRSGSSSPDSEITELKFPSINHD
Put plainly: Human CTPS1 enzyme inhibition, ADP-Glo Max assay. It counts as biochemical. Conditions: human full length CTPS1, read-out: CTPS1 (Human CTPS1 Enzyme Inhibition data grouped by potency range, IC50). As for the experimental part:
Biological Example 1—Human CTPS1 Enzyme Inhibition
The enzyme inhibitory activities of compounds invented against the target of interest were determined using the ADP-Glo™ Max assay (Promega, UK). Assays for human CTPS1 were performed in 1× assay buffer containing 50 mM Tris, 10 mM MgCl2, 0.01% Tween-20, pH to 8.0 accordingly. Finally, immediately before use, L-cysteine was added to the 1× assay buffer to a final concentration of 2 mM. All reagents are from Sigma-Aldrich unless specified otherwise. Human full length active C-terminal FLAG-Hiss-tag CTPS1 (UniProtKB-P17812, CTPS[1-591]-[…]) was obtained from Proteros biostructures GmbH.
3× human CTPS1 protein was prepared in 1× assay buffer to the final working protein concentration required for the reaction. A 2 uL volume per well of 3× human CTPS1 protein was mixed with 2 uL per well of 3× test compound (compound prepared in 1× assay buffer to an appropriate final 3× compound concentration respective to the concentration response curve designed for the compounds under test) for 10 minutes at 25° C. The enzymatic reaction was then initiated by addition of a 2 uL per well volume of a pre-mixed substrate mix (UltraPure ATP from ADP-Glo™ Max kit (0.31 mM), GTP (0.034 mM), UTP (0.48 mM) and L-glutamine (0.186 mM)) and the mixture was incubated for an appropriate amount of time within the determined linear phase of the reaction at 25° C. under sealed plate conditions with constant agitation at 500 revolutions per minute (rpm). ADP-GIo™ Max reagent was added for 60 minutes (6 uL per well) and subsequently ADP-Glo™ Max development reagent was added for 60 minutes (12 uL per well) prior to signal detection in a microplate reader (EnVision® Multilabel Reader, Perkin Elmer). Following each reagent addition over the course of the assay, assay plates were pulse centrifuged for 30 seconds at 500 rpm.
In all cases, the enzyme converts ATP to ADP and the ADP-Glo™ Max reagent subsequently depletes any remaining endogenous ATP in the reaction system. The ADP-Glo™ Max detection reagent converts the ADP that has been enzymatically produced back into ATP and using ATP as a substrate together with luciferin for the enzyme luciferase, light is generated which produces a detectable luminescence. […] The percentage inhibition produced by each concentration of compound was calculated using the equation shown below: […]
Percentage inhibition was then plotted against compound concentration, and the 50% inhibitory concentration (IC50) was determined from the resultant concentration-response curve.
`CCC(NC(=O)c1ccc(-c2cncc(C)c2)cc1)c1csc(NS(=O)(=O)C2CC2)n1` (racemic) [Example R60, N-(1-(2-(cyclopropanesulfonamido)thiazol-4-yl)propyl)-4-(5-methylpyridin-3-yl)benzamide]: the IC50 lay in the range of 100 to 1000 nM. With `CCC(CC)(NC(=O)c1ccc(-c2cncc(C(F)(F)F)n2)cc1)c1csc(NS(=O)(=O)C2CC2)n1` [Example R19, N-(3-(2-(cyclopropanesulfonamido)thiazol-4-yl)pentan-3-yl)-4-(6-(trifluoromethyl)pyrazin-2-yl)benzamide], the IC50 is less than 100 nM. As for `CCOc1cncc(-c2ccc(C(=O)NC(C)(C)c3csc(NS(=O)(=O)C4CC4)n3)cc2)n1` [Example R55, N-(2-(2-(cyclopropanesulfonamido)thiazol-4-yl)propan-2-yl)-4-(6-ethoxypyrazin-2-yl)benzamide], the figure is less than 100 nM; as for `CC(C)(NC(=O)c1ccc(-c2cccc(C(F)(F)F)c2)cc1)c1csc(NS(=O)(=O)C2CC2)n1` [Example R40, N-(2-(2-(cyclopropanesulfonamido)thiazol-4-yl)propan-2-yl)-3′-(trifluoromethyl)-[1,1′-biphenyl]-4-carboxamide], 100 to 1000 nM; as for `Cc1sc(NS(=O)(=O)C2CC2)nc1C(C)(C)NC(=O)c1ccc(-c2cncc(C(F)(F)F)n2)cc1` [Example R78, N-(2-(2-(cyclopropanesuIfonamido)-5-methylthiazol-4-yl)propan-2-yl)-4-(6-(trifluoromethyl)pyrazin-2-yl)benzamide], 100 to 1000 nM.

For `O=C(NCc1csc(NS(=O)(=O)C2CC2)n1)c1ccc(-c2cncc(C(F)(F)F)n2)cc1` [Example R12, N-((2-(cyclopropanesulfonamido)thiazol-4-yl)methyl)-4-(6-(trifluoromethyl)pyrazin-2-yl)benzamide], the IC50 was less than 100 nM.

In the case of `CC(C)(NC(=O)c1ccc(-c2cncc(OCC(F)(F)F)n2)cc1F)c1csc(NS(=O)(=O)C2CC2)n1` [Example R44, N-(2-(2-(cyclopropanesuIfonamido)thiazol-4-yl)propan-2-yl)-2-fluoro-4-(6-(2,2,2-trifluoroethoxy)pyrazin-2-yl)benzamide], the IC50 fell in the range of 100 to 1000 nM. For the molecule `CCC(NC(=O)c1ccc(-c2cncc(C(F)(F)F)c2)cc1)c1csc(NS(=O)(=O)C2CC2)n1` (single isomer, unassigned) [Example R3, N-(1-(2-(cyclopropanesulfonamido)thiazol-4-yl)propyl)-4-(5-(trifluoromethyl)pyridin-3-yl)benzamide], the IC50 is 100 to 1000 nM. Regarding `CC(=O)c1cncc(-c2ccc(C(=O)NC(C)(C)c3csc(NS(=O)(=O)C4CC4)n3)cc2)c1` [Example R34], the IC50 fell in the range of 1000 to 10000 nM. Next, `CCC(NC(=O)c1ccc(-c2cncc(F)c2)cc1)c1csc(NS(=O)(=O)C2CC2)n1` (single isomer, unassigned) [Example R69, N-(1-(2-(cyclopropanesulfonamido)thiazol-4-yl)propyl)-4-(5-fluoropyridin-3-yl)benzamide]: less than 100 nM; `CCC(CC)(NC(=O)c1ccc(-c2cncc(Cl)n2)cc1)c1csc(NS(=O)(=O)C2CC2)n1` [Example R20, 4-(6-chloropyrazin-2-yl)-N-(3-(2-(cyclopropanesulfonamido)thiazol-4-yl)pentan-3-yl)benzamide]: less than 100 nM; `COCCC(NC(=O)c1ccc(-c2cncc(C(F)(F)F)n2)cc1F)c1csc(NS(=O)(=O)C2CC2)n1` (stereo not drawn) [Example R87, N-(1-(2-(cyclopropanesulfonamido)thiazol-4-yl)-3-methoxypropyl)-2-fluoro-4-(6-(trifluoromethyl)pyrazin-2-yl)benzamide]: 100 to 1000 nM. As for `CC(C)(NC(=O)c1ccc(-c2cncc(C(F)(F)F)n2)cc1)c1csc(NS(=O)(=O)C2CC2)n1` [Example R51, N-(2-(2-(cyclopropanesulfonamido)thiazol-4-yl)propan-2-yl)-4-(6-(trifluoromethyl)pyrazin-2-yl)benzamide], the figure is less than 100 nM; as for `CCOc1cncc(-c2ccc(C(=O)NC(CC)c3csc(NS(=O)(=O)C4CC4)n3)c(F)c2)n1` (racemic) [Example R62, N-(1-(2-(cyclopropanesulfonamido)thiazol-4-yl)propyl)-4-(6-ethoxypyrazin-2-yl)-2-fluorobenzamide], 100 to 1000 nM.

On to `CC(C)(NC(=O)c1ccc(-c2cncc(C(F)(F)F)n2)cc1)c1nc(NS(=O)(=O)C2CC2)sc1Cl` [Example R79, N-(2-(5-chloro-2-(cyclopropanesulfonamido)thiazol-4-yl)propan-2-yl)-4-(6-(trifluoromethyl)pyrazin-2-yl)benzamide], for which the IC50 lay within 100 to 1000 nM.

As to `CCC(CC)(NC(=O)c1ccc(-c2cnccn2)cc1)c1csc(NS(=O)(=O)C2CC2)n1` [Example R22, N-(3-(2-(cyclopropanesulfonamido)thiazol-4-yl)pentan-3-yl)-4-(pyrazin-2-yl)benzamide], the IC50 fell in the range of 100 to 1000 nM. As for `Cc1cc(-c2cncc(C(F)(F)F)n2)ccc1C(=O)NC1(c2csc(NS(=O)(=O)C3CC3)n2)CC1` [Example R83, N-(1-(2-(cyclopropanesulfonamido)thiazol-4-yl)cyclopropyl)-2-methyl-4-(6-(trifluoromethyl)pyrazin-2-yl)benzamide], the figure is less than 100 nM; as for `CC(C)(NC(=O)c1ccc(-c2cncc(C(F)(F)F)c2)cc1)c1csc(NS(=O)(=O)C2CC2)n1` [Example R35, N-(2-(2-(cyclopropanesulfonamido)thiazol-4-yl)propan-2-yl)-4-(5-(trifluoromethyl)pyridin-3-yl)benzamide], less than 100 nM; as for `CCC(CC)(NC(=O)c1ccc(-c2cncc(C)n2)cc1)c1csc(NS(=O)(=O)C2CC2)n1` [Example R21, N-(3-(2-(cyclopropanesulfonamido)thiazol-4-yl)pentan-3-yl)-4-(6-methylpyrazin-2-yl)benzamide], less than 100 nM. As for `CC(C)(NC(=O)c1ccc(-c2cncc(C(F)(F)F)n2)cn1)c1csc(NS(=O)(=O)C2CC2)n1` [Example R24, N-(2-(2-(cyclopropanesulfonamido)thiazol-4-yl)propan-2-yl)-5-(6-(trifluoromethyl)pyrazin-2-yl)picolinamide], the figure is 100 to 1000 nM; as for `CCOc1cncc(-c2cnc(C(=O)NC(C)(C)c3csc(NS(=O)(=O)C4CC4)n3)c(F)c2)n1` [Example R23, N-(2-(2-(cyclopropanesuIfonamido)thiazol-4-yl)propan-2-yl)-5-(6-ethoxypyrazin-2-yl)-3-fluoropicolinamide], 100 to 1000 nM; as for `O=C(NCc1csc(NS(=O)(=O)C2CC2)n1)c1ccc(-c2cncc(C(F)(F)F)n2)cc1F` [Example R10, N-((2-(cyclopropanesulfonamido)thiazol-4-yl)methyl)-2-fluoro-4-(6-(trifluoromethyl)pyrazin-2-yl)benzamide], less than 100 nM. As for `CCOc1cncc(-c2ccc(C(=O)NC(C)(C)c3nc(NS(=O)(=O)C4CC4)sc3Cl)c(F)c2)n1` [Example R75, N-(2-(5-chloro-2-(cyclopropanesulfonamido)thiazol-4-yl)propan-2-yl)-4-(6-ethoxypyrazin-2-yl)-2-fluorobenzamide], the IC50 lay in the range of 100 to 1000 nM. `CCOc1cncc(-c2ccc(C(=O)NCc3csc(NS(=O)(=O)C4CC4)n3)cc2)n1` [Example R14, N-((2-(cyclopropanesulfonamido)thiazol-4-yl)methyl)-4-(6-ethoxypyrazin-2-yl)benzamide]: the IC50 was less than 100 nM.

The values above are taken from US11505547B2, “Compounds” (STEP PHARMA S.A.S., priority 2017, dated 2022).
